Laboratory results taken from PubChem BioAssay AID330 (DTP/NCI, 2004).
Values joined by “and” are separate entries in the source; they are usually repeats but may differ in a detail not shown here. Equal values may be shown once. Inconclusive results and toxic doses are left out. Rule for the calls: active = survival T/C of 150% or more; inactive = T/C below 125% in these data.

Test system: P388 leukemia ip, CD2F1 mice, survival T/C
Test: NCI In Vivo Anticancer Drug Screen. Data for tumor model P388 Leukemia (intraperitoneal) in CD2F1 (CDF1) mice
Conditions: endpoint: median survival time, higher = longer survival
In short: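 Mice carrying the transplanted tumor received test compound or vehicle. Survival was recorded in each group, and the value is the treated-group measurement divided by that of the vehicle-treated control group.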

[1] = dose: 100.0 mg/kg/injection, schedule: Q01DX009 (ip), vehicle: saline with Tween-80
[2] = dose: 200.0 mg/kg/injection, schedule: Q01DX009 (ip), vehicle: saline with Tween-80
[3] = dose: 50.0 mg/kg/injection, schedule: Q01DX009 (ip), vehicle: saline with Tween-80
[4] = dose: 50.0 mg/kg/injection, schedule: Q01DX005 (ip), vehicle: Klucel (hydroxypropylcellulose) (HPC)
[5] = dose: 100.0 mg/kg/injection, schedule: Q01DX005 (ip), vehicle: Klucel (hydroxypropylcellulose) (HPC)
[6] = dose: 200.0 mg/kg/injection, schedule: Q01DX005 (ip), vehicle: Klucel (hydroxypropylcellulose) (HPC)
[7] = dose: 50.0 mg/kg/injection, schedule: Q01DX009 (ip), vehicle: Klucel (hydroxypropylcellulose) (HPC)
[8] = dose: 100.0 mg/kg/injection, schedule: Q01DX009 (ip), vehicle: Klucel (hydroxypropylcellulose) (HPC)
[9] = dose: 200.0 mg/kg/injection, schedule: Q01DX009 (ip), vehicle: Klucel (hydroxypropylcellulose) (HPC)

Measured: T/C

CC(=O)OC1c2c(C)coc2C(=O)C23OC2CCC(C)C13C (stereo not given)
inactive: dose: 5.0 mg/kg/injection, schedule: Q01DX009 (ip), vehicle: saline with Tween-80 100 % of control | dose: 10.0 mg/kg/injection, schedule: Q01DX009 (ip), vehicle: saline with Tween-80 102 % of control | dose: 20.0 mg/kg/injection, schedule: Q01DX009 (ip), vehicle: saline with Tween-80 102 % of control | dose: 40.0 mg/kg/injection, schedule: Q01DX009 (ip), vehicle: saline with Tween-80 96 % of control

CCO/C(C)=C(/C(C)=O)C(=O)NC1CCCCC1
inactive: [1] 95 % of control | [2] 90 % of control | dose: 400.0 mg/kg/injection, schedule: Q01DX009 (ip), vehicle: saline with Tween-80 90 % of control

O=C(Nc1ccc2c(c1)OCO2)O/N=C1\C(=O)Nc2ccccc21
inactive: dose: 25.0 mg/kg/injection, schedule: Q04DX003 (ip), vehicle: saline with Tween-80 100 % of control | dose: 50.0 mg/kg/injection, schedule: Q04DX003 (ip), vehicle: saline with Tween-80 90 % of control | dose: 100.0 mg/kg/injection, schedule: Q04DX003 (ip), vehicle: saline with Tween-80 90 % of control

c1cc[c]([Ge]([c]2ccccc2)[c]2ccccc2)cc1
inactive: dose: 60.0 mg/kg/injection, schedule: Q01DX005 (ip), vehicle: saline with Tween-80 91 % of control | dose: 120.0 mg/kg/injection, schedule: Q01DX005 (ip), vehicle: saline with Tween-80 100 % of control | dose: 240.0 mg/kg/injection, schedule: Q01DX005 (ip), vehicle: saline with Tween-80 97 % of control

c1c2c(cc3c1OCO3)Cc1cc3c(cc1Cc1cc4c(cc1C2)OCO4)OCO3
inactive: [3] 108 % of control | [1] 108 % of control | [2] 100 % of control

O=P(c1ccccc1)(c1ccccc1)c1ccccc1.[CH3][Sn]([Cl])([Cl])[c]1ccccc1
inactive: dose: 12.5 mg/kg/injection, schedule: Q04DX003 (ip), vehicle: saline 100 % of control and 118 % of control | dose: 25.0 mg/kg/injection, schedule: Q04DX003 (ip), vehicle: saline 100 % of control and 104 % of control | dose: 50.0 mg/kg/injection, schedule: Q04DX003 (ip), vehicle: saline 100 % of control and 101 % of control | dose: 100.0 mg/kg/injection, schedule: Q04DX003 (ip), vehicle: saline 100 % of control and 110 % of control

CN1C2C=C(c3ccccc3)CC1CC2 (stereo not given)
inactive: dose: 0.75 mg/kg/injection, schedule: Q01DX005 (ip), vehicle: saline 94 % of control | dose: 1.5 mg/kg/injection, schedule: Q01DX005 (ip), vehicle: saline 108 % of control | dose: 1.56 mg/kg/injection, schedule: Q01DX005 (ip), vehicle: Klucel (hydroxypropylcellulose) (HPC) 105 % of control | dose: 3.0 mg/kg/injection, schedule: Q01DX005 (ip), vehicle: saline 102 % of control | dose: 3.12 mg/kg/injection, schedule: Q01DX005 (ip), vehicle: Klucel (hydroxypropylcellulose) (HPC) 103 % of control

COc1cc2ccc1NC(=O)N1CCN(CC1)C(=O)Nc1ccc(cc1OC)-c1ccc(c(OC)c1)NC(=O)N1CCN(CC1)C(=O)Nc1ccc-2cc1OC
inactive: [4] 101 % of control | [5] 98 % of control | [6] 102 % of control

O=C(O)c1cc2c3ccccc3ncc2c2ccccc12
inactive: dose: 100.0 mg/kg/injection, schedule: Q01DX001 (ip), vehicle: saline with Tween-80 113 % of control | dose: 200.0 mg/kg/injection, schedule: Q01DX001 (ip), vehicle: saline with Tween-80 100 % of control | dose: 400.0 mg/kg/injection, schedule: Q01DX001 (ip), vehicle: saline with Tween-80 100 % of control

O=c1cnn(C2OC(CO)C(O)C2Cl)c(=O)[nH]1 (stereo not given)
inactive: dose: 4.06 mg/kg/injection, schedule: Q01DX009 (ip), vehicle: saline 99 % of control | dose: 8.12 mg/kg/injection, schedule: Q01DX009 (ip), vehicle: saline 108 % of control | dose: 16.25 mg/kg/injection, schedule: Q01DX009 (ip), vehicle: saline 101 % of control | dose: 32.5 mg/kg/injection, schedule: Q01DX009 (ip), vehicle: saline 101 % of control | dose: 65.0 mg/kg/injection, schedule: Q01DX009 (ip), vehicle: saline 106 % of control | dose: 130.0 mg/kg/injection, schedule: Q01DX009 (ip), vehicle: saline 102 % of control

Nc1ccc2ccc(O)cc2c1
inactive: dose: 12.5 mg/kg/injection, schedule: Q01DX009 (ip), vehicle: saline with Tween-80 100 % of control | dose: 25.0 mg/kg/injection, schedule: Q01DX009 (ip), vehicle: saline with Tween-80 100 % of control | [3] 100 % of control | [1] 98 % of control

O=C(O)CNC1CCCCC1
inactive: dose: 60.0 mg/kg/injection, schedule: Q01DX005 (ip), vehicle: saline 95 % of control | dose: 120.0 mg/kg/injection, schedule: Q01DX005 (ip), vehicle: saline 92 % of control | dose: 240.0 mg/kg/injection, schedule: Q01DX005 (ip), vehicle: saline 87 % of control

O=S(=O)(O)C1CC(S(=O)(=O)O)NC(S(=O)(=O)O)C1 (stereo not given)
inactive: dose: 50.0 mg/kg/injection, schedule: Q01DX005 (ip), vehicle: saline 99 % of control | dose: 100.0 mg/kg/injection, schedule: Q01DX005 (ip), vehicle: saline 98 % of control | dose: 200.0 mg/kg/injection, schedule: Q01DX005 (ip), vehicle: saline 94 % of control

Nc1cc2c(=O)c3cc(Cl)cc(Cl)c3[nH]c2c2c1C(=O)c1ccccc1C2=O
inactive: [7] 99 % of control | [8] 105 % of control | [9] 100 % of control

O=C1CCCC(=O)OCCOCCOCCOCCOCCO1
inactive: dose: 12.5 mg/kg/injection, schedule: Q01DX009 (ip), vehicle: saline 104 % of control and 108 % of control | dose: 25.0 mg/kg/injection, schedule: Q01DX009 (ip), vehicle: saline 104 % of control and 95 % of control | dose: 50.0 mg/kg/injection, schedule: Q01DX009 (ip), vehicle: saline 104 % of control and 108 % of control and 120 % of control | dose: 100.0 mg/kg/injection, schedule: Q01DX009 (ip), vehicle: saline 105 % of control | dose: 200.0 mg/kg/injection, schedule: Q01DX009 (ip), vehicle: saline 105 % of control

CCOC(=O)C1(C(=O)OCC)COC(=O)C1
inactive: dose: 16.0 mg/kg/injection, schedule: Q01DX009 (ip), vehicle: saline with Tween-80 97 % of control | dose: 32.0 mg/kg/injection, schedule: Q01DX009 (ip), vehicle: saline with Tween-80 109 % of control | dose: 64.0 mg/kg/injection, schedule: Q01DX009 (ip), vehicle: saline with Tween-80 114 % of control | dose: 128.0 mg/kg/injection, schedule: Q01DX009 (ip), vehicle: saline with Tween-80 97 % of control | dose: 256.0 mg/kg/injection, schedule: Q01DX009 (ip), vehicle: saline with Tween-80 106 % of control

O=C1C(c2ccccc2)=C(c2ccccc2)C(=O)N1c1ccccn1
inactive: [7] 94 % of control | [8] 105 % of control | [9] 103 % of control

O=C(CCCNC(=O)OCc1ccccc1)OCc1ccc2c(c1)C(=O)c1ccccc1C2=O
inactive: dose: 100.0 mg/kg/injection, schedule: Q01DX001 (ip), vehicle: Klucel (hydroxypropylcellulose) (HPC) 89 % of control | dose: 200.0 mg/kg/injection, schedule: Q01DX001 (ip), vehicle: Klucel (hydroxypropylcellulose) (HPC) 88 % of control | dose: 400.0 mg/kg/injection, schedule: Q01DX001 (ip), vehicle: Klucel (hydroxypropylcellulose) (HPC) 86 % of control

CC(=Nc1ccc(C)cc1N)c1c(O)cc(C)oc1=O
inactive: dose: 60.0 mg/kg/injection, schedule: Q01DX005 (ip), vehicle: Klucel (hydroxypropylcellulose) (HPC) 95 % of control | dose: 120.0 mg/kg/injection, schedule: Q01DX005 (ip), vehicle: Klucel (hydroxypropylcellulose) (HPC) 96 % of control | dose: 240.0 mg/kg/injection, schedule: Q01DX005 (ip), vehicle: Klucel (hydroxypropylcellulose) (HPC) 101 % of control

c1ccc(-c2cnc3nc4[nH]c5ccccc5c4nn23)cc1
inactive: dose: 50.0 mg/kg/injection, schedule: Q01DX005 (ip), vehicle: saline with Tween-80 98 % of control | dose: 100.0 mg/kg/injection, schedule: Q01DX005 (ip), vehicle: saline with Tween-80 92 % of control | dose: 200.0 mg/kg/injection, schedule: Q01DX005 (ip), vehicle: saline with Tween-80 98 % of control

CC(=O)Nc1ccc(C(=O)CN(Cc2ccccc2)Cc2ccccc2)cc1
inactive: [4] 87 % of control | [5] 87 % of control

Clc1ccc2c(c1)nc(-c1ccccn1)n2CCc1ccccn1
inactive: dose: 25.0 mg/kg/injection, schedule: Q01DX005 (ip), vehicle: Klucel (hydroxypropylcellulose) (HPC) 99 % of control | [4] 104 % of control | [5] 101 % of control | [6] 93 % of control

CC(C)CCN=Cc1ccccc1O.CC(C)CCN=Cc1ccccc1O.[Zn]
inactive: [7] 98 % of control | [8] 104 % of control
